In brackets after ≈: the same amount, converted by molar mass. Read-outs that look alike come from different tables or passages of the source.
How the values were obtained:
[1] = test system: MEF cells; assay: CC50 in MEF cells (Table 3); format: cell-based; conditions: Mouse Cytomegalovirus section of Table 3
[2] = test system: Mouse Cytomegalovirus; assay: CPE inhibition in stationary cells (visual), MCMV in MEF cells; format: cell-based; conditions: test compounds in DMSO
[3] = test system: Epstein-Barr Virus; assay: VCA expression in EBV-infected Daudi cells
Source text: Raji is a Burkitt's lymphoma cell line containing 60 EBV genome/cell, and was the primary cell used for screening antiviral activity against EBV early antigen (EA) expression. […] It spontaneously expresses EBV EA in 0.25-0.5% of the cells. It was used in follow-up studies to confirm activity. These cell lines respond to superinfection by EBV by expressing EA-diffuse component EA (D), EA restricted component EA (R), and viral capsid antigen (VCA). […] The cultures were fed twice weekly and the cell concentration was adjusted to 3×10^5/ml. The cells were kept at 37° C. in humidified atmosphere with 5% CO2.
Cells were infected with the P3HR-1 strain of HBV and the test compound was added after adsorption (45 minutes at 37° C.) and washing of the cell cultures. The cultures were incubated for two days in complete medium to allow viral gene expression. Following the 48 hours of incubation, the numbers of cells of each sample was counted and smears were made. Monoclonal antibodies to the different EA components and VCA were then added to the cells and then incubated and washed. This is followed by a fluorescein conjugated rabbit anti-mouse IgG antibody, and the number of fluorescence cells in the smear were counted. The total number of cells in the cultures positive for EA or VCA were then calculated and compared.

[4] = test system: Human Cytomegalovirus; assay: CPE inhibition in stationary cells (visual), HCMV in HFF cells; format: cell-based
[5] = test system: HFF cells; assay: CC50 in HFF cells (Table 3); format: cell-based, human; conditions: HFF cells
Method: (§1) The cells were observed daily for any change in morphology. The rounding and lysis of cells were observed if the compound has cytotoxic effect. At the end of this time, the media-drug solution was removed and the cells washed. […] The cells-media mixture was then pipetted up and down several times to resuspend the cells and 0.2 ml of the cell suspension was added to 9.8 ml of trypan blue and cells were counted using hemocytometer. Each sample was counted three times with three replicate wells per sample.

[6] = test system: Daudi cells; assay: CC50 in Daudi cells (Table 3); format: cell-based
Method: (§9) Raji is a Burkitt's lymphoma cell line containing 60 EBV genome/cell, and was the primary cell used for screening antiviral activity against EBV early antigen (EA) expression. Daudi is a low level producer that contains 152 EBV genome copies/cell. It spontaneously expresses EBV EA in 0.25-0.5% of the cells. It was used in follow-up studies to confirm activity. […] All cell lines were maintained in RPMI-1640 medium supplemented with 10% FCS, L-glutamine and 100 μg/ml gentamicin. The cultures were fed twice weekly and the cell concentration was adjusted to 3×10^5/ml. The cells were kept at 37° C. in humidified atmosphere with 5% CO2.

[7] = test system: Varicella-Zoster Virus; assay: CPE inhibition in stationary cells (visual), VZV in HFF cells; format: cell-based
[8] = test system: HSV-2 strain G; assay: CPE inhibition, HSV-2 strain G in HEp-2 cells; note: key: +++ = Complete cytopathic effect; ++ = Moderate cytopathic effect; + = Minimum cytopathic effect; − = No cytopathic effect; format: cell-based, herpes simplex virus type 2; conditions: conc. per compound (ng/ml)
Source text: (§2) Human laryngeal epithelial carcinoma cells (HEp-2, ATCC, Rockville, Md.) were used for testing of antiviral compounds by cytopathic effect (CPE) inhibition and plaque reduction assay. Primary human foreskin fibroblast cells (HFF) obtained from Dr. E. R. Kern (Department of Pediatrics, University of Alabama Medical School, 309 Bevill Biomedical Research Building, 845 19th Street South, Birmingham, Ala., 35294-2170), were used for cytopathic effect (CPE) inhibition assay. HEp-2, African green monkey kidney cells (Vero, ATCC), HFF and primary rabbit kidney cells were used to determine the cytotoxic effect of compounds of formula I. These cells were propagated in Dulbeco's modified Eagle's medium (DMEM) (Sigma, USA) supplemented with 10% inactivated fetal calf serum (FCS), 25 mM HEPES, 0.2% sodium bicarbonate and 1% penicillin/-streptomycin at 37° C. in the presence of 5% CO2.
(§3) The antiviral activity of the test compounds was determined against HSV-1 strain F, HSV-2 strain G (ATCC), HSV-1 strain E-377 and HSV-2 strain MS (Dr. E. R. Kern, see above), CMV strain AD 169 (NIH), HCMV (NIH), MCMV (NIH), and VZV strain Ellen (NIH). Highly infective virus stocks of HSV-1 and HSV-2 were prepared by infecting a confluent monolayer of HEp-2 (ATCC) or HFF in 150 cm^2 plastic tissue culture flasks (Falcon, USA) at a multiplicity of infection of 0.5 in DMEM supplemented with 10% inactivated fetal calf serum and 1% penicillin/streptomycin at 37° C. in the presence of 5% CO2. The infected cells were disrupted through three freeze/thaw cycles, and viruses were clarified from large cell debris by low speed centrifugation at 3000 rpm for 10 minutes. The virus suspension was separated, aliquoted and stored at −80° C. until assayed or used for animal infection. The stock HSV-1 (E377) and HSV-2 (MS strain) contained 3.5×10^8 and 1.1×10^7 pfu/ml respectively.
(§4) Low passage HFF cells were seeded into 96-well tissue culture plates 24 hours prior to use at a cell concentration of 2.5×10^4 cells per ml in 0.2 ml of DMEM supplemented with 10% fetal calf serum. After 24 hours of incubation at 37° C. in the presence of 5% CO2, medium was removed and the test compounds were diluted two-fold in DMEM in the 96-well tissue culture plate containing monolayer. […] For both HSV-1 and HSV-2 assays, the virus concentration utilized was 1000 pfu/ml and for HCMV, MCMV, and VZV assay 2500 pfu/ml were used. The plates were then incubated at 37° C. in the presence of 5% CO2 for two to three days for HSV-1 and HSV-2, 10 days for VZV and 14 days for HCMV and MCMV. The virus induced cytopathic effect (CPE) was monitored microscopically every day. CPE of HSV-1 was recognized by cell rounding and clumping, while HSV-2 formed large syncytia along with rounding and clumping of cells. […] EC50s were estimated from graphical plots of percent CPE against the concentration of the test compounds. The EC50s for each compound are the mean of EC50s for three or more independent experiments. After three days of incubation period, media was aspirated and the cells stained with a 0.1% crystal violet solution for 30 minutes. The stain was then removed and the plates were rinsed with tap water, air dried and retained.

[9] = test system: HSV-2 (strain G); assay: Plaque reduction assay, HSV-2 strain G in HEp-2 cells; format: cell-based, herpes simplex virus type 2; conditions: conc. per compound (ng/ml) (Acyclovir 250), HSV-2 virus control 47
Method: (§5) HEp-2 cells were grown to monolayer in 24 well tissue culture plates in DMEM containing 10% fetal calf serum at 37° C. for 24-36 hours in the presence of 5% CO2. The monolayer of HEp-2 cells was infected with 0.1 ml of HSV- 1 (strain F) or HSV-2 (strain G) containing 100 pfu. The viruses were allowed to adsorb for 1 hour at 37° C. in the presence of 5% CO2. All wells containing virus infected cells except virus control were overlaid with 0.9 ml of DMEM and 1 ml of test compound. The virus control and cell control received DMEM only. All microtiter plates were incubated at 37° C. in the presence of 5% CO2 and observed twice daily for 72 hours for viral CPE. At the end of the experiment, plates were stained with 0.1% crystal violet and the results were quantified by counting plaque forming units.

[10] = test system: HSV-1 strain F; assay: CPE inhibition, HSV-1 strain F in HEp-2 cells; note: key: +++ = Complete cytopathic effect; ++ = Moderate cytopathic effect; + = Minimum cytopathic effect; − = No cytopathic effect; format: cell-based, herpes simplex virus type 1; conditions: conc. per compound (ng/ml)
Source text: as §2, §3, §4

[11] = CC50 in HFF cells (Table 3); format: cell-based, human; conditions: human
Method: as §1

[12] = test system: Human laryngeal epithelial carcinoma cells (HEp-2); assay: Cytotoxicity in HEp-2 cells; format: cell-based
Method: (§6) Human laryngeal epithelial carcinoma cells (HEp-2, ATCC, Rockville, Md.) were used for testing of antiviral compounds by cytopathic effect (CPE) inhibition and plaque reduction assay. […] HEp-2, African green monkey kidney cells (Vero, ATCC), HFF and primary rabbit kidney cells were used to determine the cytotoxic effect of compounds of formula I. These cells were propagated in Dulbeco's modified Eagle's medium (DMEM) (Sigma, USA) supplemented with 10% inactivated fetal calf serum (FCS), 25 mM HEPES, 0.2% sodium bicarbonate and 1% penicillin/-streptomycin at 37° C. in the presence of 5% CO2.
(§7) HFF, Vero and HEp-2 cells were seeded in 24-well tissue culture plates at a concentration of […] in DMEM containing 10% FCS and incubated for 24 hours at 37° C. in the presence of 5% CO2. To the monolayer of these cells 0.5, 1.0, 1.5 and 2.0 ml of solution of antiviral compounds were added in the respective wells in duplicate and the cells were then incubated in a 5% CO2 incubator at 37° C. for 72 hours. The cells were observed daily for any change in morphology. […] At the end of this time, the media-drug solution was removed and the cells washed. One ml of 0.25% trypsin was added to each well and incubated until the cells start to come off of the plate. The cells-media mixture was then pipetted up and down several times to resuspend the cells and 0.2 ml of the cell suspension was added to 9.8 ml of trypan blue and cells were counted using hemocytometer. Each sample was counted three times with three replicate wells per sample.

[13] = CC50 in Daudi cells (Table 3); format: cell-based; conditions: human
Method: as §9

[14] = test system: HSV-1 strain E-377; assay: CPE inhibition assay, HSV-1 E377 in human foreskin fibroblast cells; format: cell-based, herpes simplex virus type 1; for Qualitative CPE at 2.0 ml dose HSV-1 E377: key: +++ = Complete cytopathic effect; ++ = Moderate cytopathic effect; + = Minimum cytopathic effect; − = No cytopathic effect
Method: (§8) Stock solutions of the compounds used for the testing of antiviral activity against HSV-1 and HSV-2 were prepared in distilled water, filtered through 0.2 μm filter (Acrodisco®, Gelman Sciences, USA) and stored at room temperature until used.
as §2, §3, §4

[15] = test system: Primary human foreskin fibroblast cells (HFF); assay: Cell proliferation assay (cytotoxicity) in HFF cells; format: cell-based
Method: as §6, §7

[16] = as above; format: cell-based, human; conditions: primary human foreskin fibroblast (HFF) cells; Human foreskin fibroblast cells; reduces growth of uninfected cells by 50%
Method: as §6, §7

[17] = test system: HSV-2 strain MS; assay: CPE inhibition assay, HSV-2 MS in human foreskin fibroblast cells; format: cell-based, herpes simplex virus type 2; for Qualitative CPE at 2.0 ml dose HSV-2 MS: key: +++ = Complete cytopathic effect; ++ = Moderate cytopathic effect; + = Minimum cytopathic effect; − = No cytopathic effect
Method: as §8, §2, §3, §4

[18] = test system: HSV-1 (strain F); assay: Plaque reduction assay, HSV-1 strain F in HEp-2 cells; format: cell-based, herpes simplex virus type 1; conditions: conc. per compound as in column Conc. (ng/ml), HSV-1 virus control 5
Method: as §5

[19] = Epstein-Barr Virus, Daudi cells, VCA, test compounds in DMSO
[20] = Human Cytomegalovirus section of Table 3
[21] = Varicella-Zoster Virus section of Table 3
[22] = Daudi cells, Epstein-Barr Virus section of Table 3
[23] = human gammaherpesvirus 4, Daudi
[24] = HEp-2 cells, conc. per compound (ng/ml)
[25] = Human alphaherpesvirus 3, test compounds in DMSO, read-out: EC50
[26] = HFF cells, solution conc. per compound (ng/ml) (Acyclovir 250), 2.0 ml dose

| Compound | EC50 [3, 19] [µg/mL] | EC50 ([4]; test compounds in DMSO) [µg/mL] | CC50 [5, 20] [µg/mL] | CC50 [5, 21] [µg/mL] | CC50 [6, 22] [µg/mL] | EC50 ([7]; test compounds in DMSO) [µg/mL] | Cytopathic Effect (CPE) Inhibition HSV-2 Strain G [8] | EC50 [3, 23] [µg/mL] | Plaque Reduction Assay Average pfu/10^5 Cells HSV-2 Strain G [9] [pfu/10^5 Cells] | Cytopathic Effect (CPE) Inhibition HSV-1 Strain F [10] | Cell Cytotoxicity [12, 24] | EC50 [7, 25] [µg/mL] | EC50 HSV-1 E377 ([14]; CPE inhibition in HFF cells) [µg/mL] | EC50 HSV-2 MS ([17]; CPE inhibition in HFF cells) [µg/mL] | other results |
| --- | --- | --- | --- | --- | --- | --- | --- | --- | --- | --- | --- | --- | --- | --- | --- |
| Betulin succinate | >0.05 | 0.0039 | 0.0969 | 0.0688 | >0.05 | >0.02 |  |  |  |  |  |  |  |  | CC50 [1]: 0.014 µg/mL; EC50 [2]: >0.004 µg/mL |
| C[C@H]1[C@H](C)CC[C@]2(C(=O)O)CC[C@]3(C)C(=CC[C@@H]4[C@@]5(C)CC[C@H](O)C(C)(C)[C@@H]5CC[C@]43C)[C@H]12 [Ursolic acid] |  |  |  |  |  |  | ++ | 0.0485 (≈ 0.106 µM) | 33 | ++ | − | > 0.0008 |  |  | EC50 ([4]; Human betaherpesvirus 5, test compounds in DMSO, read-out: EC50): > 0.1 µg/mL; CC50 at 72 h ([11]; HFF cells, Human Cytomegalovirus section of Table 3, read-out: CC50): > 0.1 µg/mL; CC50 at 72 h ([11]; HFF cells, Varicella-Zoster Virus section of Table 3, read-out: CC50): 0.0029 µg/mL (≈ 0.00635 µM); CC50 ([13]; Daudi cells, Epstein-Barr Virus section of Table 3, read-out: CC50): > 0.05 µg/mL |
| CC1(C)CCC23CC[C@]4(C)C(CCC5[C@@]6(C)C=C(O)C(=O)C(C)(C)C6CC[C@]54C)C2C1OC3 (stereo partly drawn) [Allobetulon-1,2-ene-2-ol, Allobetulon 1,2-ene-2-ol.] |  |  |  |  |  |  | ++ |  |  | ++ | − |  |  |  | melting point: 236.8 to 238.8 °C; Qualitative CPE at 2.0 ml dose HSV-1 E377 [14, 26]: +++; EC50 ([14]; Human alphaherpesvirus 1, HFF, CPE inhibition in HFF cells, read-out: EC50 HSV-1 E377): 0.22 µg/mL (≈ 0.484 µM); Qualitative Cytotoxic Effect at 2.0 ml dose [15, 26]: −; CC50 at 72 h [16]: 0.22 µg/mL (≈ 0.484 µM); Qualitative CPE at 2.0 ml dose HSV-2 MS [17, 26]: +++; EC50 ([17]; Human alphaherpesvirus 2, HFF, CPE inhibition in HFF cells, read-out: EC50 HSV-2 MS): 0.165 µg/mL (≈ 0.363 µM) |
| C=C(C)[C@@H]1CC[C@]2(COP(=O)(O)O)CC[C@]3(C)[C@H](CC[C@@H]4[C@@]5(C)CC[C@H](OP(=O)(O)O)C(C)(C)[C@@H]5CC[C@]43C)[C@@H]12 [Betulin diphosphate] |  |  |  |  |  |  |  | 0.00039 |  |  |  | > 0.1 |  |  | CC50 at 72 h ([11]; CC50): > 0.1 µg/mL; CC50 [13]: > 0.05 µg/mL |
| C[C@H]1[C@H](C)CC[C@]2(CO)CC[C@]3(C)C(=CC[C@@H]4[C@@]5(C)CC[C@H](O)C(C)(C)[C@@H]5CC[C@]43C)[C@H]12 [Uvaol] | 0.00031 (≈ 0.0007 µM) | >0.1 |  |  |  | >0.02 | ++ |  | 28 | ++ |  |  | >0.25 | >0.25 | Cell Cytotoxicity [12]: −; CC50 [6]: 0.0443 µg/mL (≈ 0.1 µM); Plaque Reduction Assay Average pfu/10^5 Cells HSV-1 Strain F [18]: 0 pfu/10^5 Cells; CC50 [15]: 0.125 µg/mL (≈ 0.282 µM) |
| C[C@@H]1O[C@@H](O[C@H]2[C@H](O[C@H]3CC[C@@]4(C)[C@@H](CC[C@]5(C)[C@@H]4CC=C4[C@@H]6CC(C)(C)CC[C@]6(C(=O)O)CC[C@]45C)[C@]3(C)CO)OC[C@H](O)[C@@H]2O)[C@H](O)[C@H](O)[C@H]1O [Hederine hydrate, α-hederin hydrate] | 0.0015 | >0.004 | 0.01 | 0.0115 | 0.0038 | >0.004 | ++ |  | 38 | ++ | − |  | >0.25 | >0.25 | CC50 ([15]; Human foreskin fibroblast cells, reduces growth of uninfected cells by 50%): >0.25 µg/mL |
